Read-outs that look alike come from different tables or passages of the source. Where a SMILES comes first, the peptide text is derived from it. Bridges are numbered along the chain shown (N, C = ends). [ ]: non-standard residue; d: D form. Tle = CC(C)(C)[C@H](N)C(=O)O; dDab = NCC[C@@H](N)C(=O)O; Orn = NCCC[C@H](N)C(=O)O; Dab = NCC[C@H](N)C(=O)O
Columns and labels:
[1] = system: Escherichia coli ATCC 25922; format: cell-based
Procedure, shortened: (§1)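 Peptide activity was tested by NCCLS broth microdilution with slight modifications. Bacteria were diluted in cation-adjusted Mueller-Hinton II broth to approximately 10^6 CFU/mL against a 0.5 McFarland standard. They were then exposed to two-fold serial peptide dilutions in broth containing 0.002% final polysorbate 80.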

[2] = system: Klebsiella pneumoniae ATCC 13883; format: cell-based
Procedure, shortened: as §1

[3] = system: Acinetobacter baumannii DSM 30008; format: cell-based
Procedure, shortened: as §1

[4] = system: human red blood cells (hRBC); assay: Hemolysis: hemolytic activity at 100 μg/mL, 1 h at 37° C.
Procedure, shortened: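 Peptides at 100 μg/mL incubated with washed 20% (v/v) human erythrocytes (~0.9×10^9 cells/mL) for 1 h at 37 °C with shaking. Released hemoglobin read at OD 540 nm in supernatant; 0% and 100% lysis from PBS/0.001% acetic acid and 2.5% Triton X-100.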

[5] = Mueller-Hinton II broth, 18-20 hours at 35° C.
[6] = 100 μg/mL, 20% hRBC, 1 h at 37° C.

Structure (SMILES)	Escherichia coli ATCC 25922 MIC ([1]; ATCC 25922) [µg/mL]	Klebsiella pneumoniae ATCC 13883 MIC ([2]; ATCC 13883) [µg/mL]	Acinetobacter baumannii DSM 30008 MIC ([3]; DSM 30008) [µg/mL]	Hemolysis at 100 μg/mL ([4]; red cells of human, 1 h, 100) [%]	Escherichia coli ATCC 25922 MIC [1, 5] [µg/mL]	Klebsiella pneumoniae ATCC 13883 MIC [2, 5] [µg/mL]	Acinetobacter baumannii DSM 30008 MIC [3, 5] [µg/mL]	Hemolysis at 100 μg/mL [4, 6] [%]
CC(C)C[C@@H]1NC(=O)[C@H](CCCNC(=N)N)NC(=O)[C@@H](CCCCN)NC(=O)[C@H](C(C)C)NC(=O)[C@@H]2CSSC[C@H](NC1=O)C(=O)N[C@@H](Cc1ccc(O)cc1)C(=O)N[C@@H](CC(N)=O)C(=O)N[C@@H](CCCN)C(=O)N[C@H](CCN)C(=O)N[C@@H](CCN)C(=O)N[C@@H](Cc1c[nH]c3ccccc13)C(=O)N[C@@H](CO)C(=O)N[C@@H](Cc1ccc(O)cc1)C(=O)N2 [Example 65, cyclo(-Leu-Cys-Tyr-Asn-Orn-^DDab-Dab-Trp-Ser-Tyr-Cys-Val-^DLys-Arg-)] (HELM PEPTIDE1{C.V.[dK].R.L.C.Y.N.[Orn].[NCC[C@@H](N[*:1])C(=O)[*:2]].[Dab].W.S.Y}$PEPTIDE1,PEPTIDE1,1:R3-6:R3|PEPTIDE1,PEPTIDE1,1:R1-14:R2$$$V2.0)	2	1	1.25	1	–	–	–	–
CC(C)C[C@@H]1NC(=O)[C@H](CCCNC(=N)N)NC(=O)[C@@H](CCN)NC(=O)[C@H]([C@@H](C)O)NC(=O)[C@@H]2CCNC(=O)C[C@H](NC1=O)C(=O)N[C@@H](Cc1ccc(O)cc1)C(=O)N[C@@H](CC(N)=O)C(=O)N[C@@H](CCCN)C(=O)N[C@H](CCN)C(=O)N[C@@H](CCN)C(=O)N[C@@H](Cc1c[nH]c3ccccc13)C(=O)N[C@@H](CO)C(=O)N[C@@H](C(C)(C)C)C(=O)N2 [Example 75, cyclo(-Leu-Asp-Tyr-Asn-Orn-^DDab-Dab-Trp-Ser-tBuGly-Dab-Thr-^DDab-Arg-)] (cyclo(LDYN[Orn][dDab][Dab]WS[Tle][Dab]T[dDab]R); lactam 2-11)	1.5	1	1.5	1	–	–	–	–
CC(C)C[C@@H]1NC(=O)[C@@H]2CCCN2C(=O)[C@@H](C)NC(=O)[C@H](CO)NC(=O)[C@@H]2CC(=O)NCC[C@H](NC1=O)C(=O)N[C@@H](Cc1ccc(O)cc1)C(=O)N[C@@H](CCN)C(=O)N[C@@H](CCN)C(=O)N[C@@H](CCN)C(=O)N[C@@H](CCN)C(=O)N[C@@H](Cc1c[nH]c3ccccc13)C(=O)N[C@@H](CCN)C(=O)N[C@@H](C(C)(C)C)C(=O)N2 [Example 26, cyclo(-Leu-Dab-Tyr-Dab-Dab-Dab-Dab-Trp-Dab-tBuGly-Asp-Ser-^DAla-Pro-)] (HELM PEPTIDE1{D.S.[dA].P.L.[Dab].Y.[Dab].[Dab].[Dab].[Dab].W.[Dab].[CC(C)(C)[C@H](N[*:1])C(=O)[*:2]]}$PEPTIDE1,PEPTIDE1,1:R3-6:R3|PEPTIDE1,PEPTIDE1,1:R1-14:R2$$$V2.0)	2	1	2	1	–	–	–	–
CC(C)C[C@@H]1NC(=O)[C@H](CCN)NC(=O)[C@@H](CCN)NC(=O)[C@H]([C@@H](C)O)NC(=O)[C@@H]2CSSC[C@H](NC1=O)C(=O)N[C@@H](Cc1ccc(O)cc1)C(=O)N[C@@H](CC(N)=O)C(=O)N[C@@H](CCCN)C(=O)N[C@H](CCN)C(=O)N[C@@H](CCN)C(=O)N[C@@H](Cc1c[nH]c3ccccc13)C(=O)N[C@@H](CO)C(=O)N[C@@H](Cc1ccc(O)cc1)C(=O)N2 [Example 7, cyclo(-Leu-Cys-Tyr-Asn-Orn-^DDab-Dab-Trp-Ser-Tyr-Cys-Thr-^DDab-Dab-)] (HELM PEPTIDE1{C.T.[NCC[C@@H](N[*:1])C(=O)[*:2]].[Dab].L.C.Y.N.[Orn].[NCC[C@@H](N[*:1])C(=O)[*:2]].[Dab].W.S.Y}$PEPTIDE1,PEPTIDE1,1:R3-6:R3|PEPTIDE1,PEPTIDE1,1:R1-14:R2$$$V2.0)	2	1	2	1	–	–	–	–
CC(C)C[C@@H]1NC(=O)[C@H](CCN)NC(=O)[C@@H](CCN)NC(=O)[C@H]([C@@H](C)O)NC(=O)[C@@H]2CSSC[C@H](NC1=O)C(=O)N[C@@H](Cc1ccc(O)cc1)C(=O)N[C@@H](CC(N)=O)C(=O)N[C@@H](CCCN)C(=O)N[C@H](CCN)C(=O)N[C@@H](CCN)C(=O)N[C@@H](Cc1c[nH]c3ccccc13)C(=O)N[C@@H](CO)C(=O)N[C@@H](C(C)(C)C)C(=O)N2 [Example 6, cyclo(-Leu-Cys-Tyr-Asn-Orn-^DDab-Dab-Trp-Ser-tBuGly-Cys-Thr-^DDab-Dab-)] (cyclo(CT[dDab][Dab]LCYN[Orn][dDab][Dab]WS[Tle]); disulfide 1-6)	–	–	–	–	0.5	0.5	0.5	5
CC(C)C[C@@H]1NC(=O)[C@H](CCN)NC(=O)[C@H]2CCCN2C(=O)[C@H](C(C)C)NC(=O)[C@H]([C@@H](C)O)NC(=O)[C@H](C(C)C)NC(=O)[C@@H]2CSSC[C@H](NC(=O)[C@H](Cc3ccc(O)cc3)NC(=O)[C@H]([C@@H](C)O)NC1=O)C(=O)N[C@@H](CCN)C(=O)N[C@H](CCN)C(=O)N[C@@H](CCN)C(=O)N[C@@H](Cc1c[nH]c3ccccc13)C(=O)N2 [Example 37, cyclo(-Leu-Thr-Tyr-Cys-Dab-^DDab-Dab-Trp-Cys-Val-Thr-Val-^DPro-Dab-)] (HELM PEPTIDE1{C.[Dab].[NCC[C@@H](N[*:1])C(=O)[*:2]].[Dab].W.C.V.T.V.[dP].[Dab].L.T.Y}$PEPTIDE1,PEPTIDE1,1:R3-6:R3|PEPTIDE1,PEPTIDE1,1:R1-14:R2$$$V2.0)	4	2	2	2	–	–	–	–
CC(C)C[C@@H]1NC(=O)[C@H](CCCNC(=N)N)NC(=O)[C@@H](CCN)NC(=O)[C@H](Cc2ccc(O)cc2)NC(=O)[C@@H]2CSSC[C@H](NC1=O)C(=O)N[C@@H](Cc1ccc(O)cc1)C(=O)N[C@@H](C)C(=O)N[C@@H](CCCN)C(=O)N[C@H](CCN)C(=O)N[C@@H](CCN)C(=O)N[C@@H](Cc1c[nH]c3ccccc13)C(=O)N[C@@H](C)C(=O)N[C@@H](Cc1ccc(O)cc1)C(=O)N2 [Example 17, cyclo(-Leu-Cys-Tyr-Ala-Orn-^DDab-Dab-Trp-Ala-Tyr-Cys-Tyr-^DDab-Arg-)] (HELM PEPTIDE1{A.[Orn].[NCC[C@@H](N[*:1])C(=O)[*:2]].[Dab].W.A.Y.C.Y.[NCC[C@@H](N[*:1])C(=O)[*:2]].R.L.C.Y}$PEPTIDE1,PEPTIDE1,8:R3-13:R3|PEPTIDE1,PEPTIDE1,1:R1-14:R2$$$V2.0)	0.5	1	0.5	4	–	–	–	–
CCC[C@@H]1NC(=O)[C@H](CCCNC(=N)N)NC(=O)[C@@H](CCN)NC(=O)[C@H](C(C)C)NC(=O)[C@@H]2CSSC[C@H](NC1=O)C(=O)N[C@@H](Cc1ccc(O)cc1)C(=O)N[C@@H](CC(N)=O)C(=O)N[C@@H](CCCN)C(=O)N[C@H](CCN)C(=O)N[C@@H](CCN)C(=O)N[C@@H](Cc1c[nH]c3ccccc13)C(=O)N[C@@H](CO)C(=O)N[C@@H](Cc1ccc(O)cc1)C(=O)N2 [Example 60, cyclo(-Nva-Cys-Tyr-Asn-Orn-^DDab-Dab-Trp-Ser-Tyr-Cys-Val-^DDab-Arg-)] (HELM PEPTIDE1{C.V.[NCC[C@@H](N[*:1])C(=O)[*:2]].R.[Nva].C.Y.N.[Orn].[NCC[C@@H](N[*:1])C(=O)[*:2]].[Dab].W.S.Y}$PEPTIDE1,PEPTIDE1,1:R3-6:R3|PEPTIDE1,PEPTIDE1,1:R1-14:R2$$$V2.0)	1	1	0.75	1	–	–	–	–
CC(C)[C@@H]1NC(=O)[C@@H]2CCCN2C(=O)[C@@H](Cc2ccc(O)cc2)NC(=O)[C@H]([C@@H](C)O)NC(=O)[C@@H]2CSSC[C@H](NC1=O)C(=O)N[C@@H](Cc1ccc(O)cc1)C(=O)N[C@@H](CCN)C(=O)N[C@@H](CN)C(=O)N[C@@H](CCN)C(=O)N[C@@H](CCN)C(=O)N[C@@H](Cc1c[nH]c3ccccc13)C(=O)N[C@@H](CCN)C(=O)N[C@@H](C(C)(C)C)C(=O)N2 [Example 15, cyclo(-Val-Cys-Tyr-Dab-Dap-Dab-Dab-Trp-Dab-tBuGly-Cys-Thr-^DTyr-Pro-)] (HELM PEPTIDE1{C.T.[dY].P.V.C.Y.[Dab].[NC[C@H](N[*:1])C(=O)[*:2]].[Dab].[Dab].W.[Dab].[CC(C)(C)[C@H](N[*:1])C(=O)[*:2]]}$PEPTIDE1,PEPTIDE1,1:R3-6:R3|PEPTIDE1,PEPTIDE1,1:R1-14:R2$$$V2.0)	–	–	–	–	0.5	0.25	0.5	2

From US11753446B2, “Beta-hairpin peptidomimetics” (POLYPHOR AG, priority 2014, dated 2023)
